Test [1] addresses T1, gp43exo− (bacteriophage T4 DNA polymerase) (Enterobacteria phage T4, UniProt P04415, D219A). To be noted: cited from earlier work.
Test [2] addresses T2, gp43 exo+ (bacteriophage T4 DNA polymerase) (Enterobacteria phage T4, UniProt P04415).
T2 construct: made in house
T2 sequence (P04415 1-898): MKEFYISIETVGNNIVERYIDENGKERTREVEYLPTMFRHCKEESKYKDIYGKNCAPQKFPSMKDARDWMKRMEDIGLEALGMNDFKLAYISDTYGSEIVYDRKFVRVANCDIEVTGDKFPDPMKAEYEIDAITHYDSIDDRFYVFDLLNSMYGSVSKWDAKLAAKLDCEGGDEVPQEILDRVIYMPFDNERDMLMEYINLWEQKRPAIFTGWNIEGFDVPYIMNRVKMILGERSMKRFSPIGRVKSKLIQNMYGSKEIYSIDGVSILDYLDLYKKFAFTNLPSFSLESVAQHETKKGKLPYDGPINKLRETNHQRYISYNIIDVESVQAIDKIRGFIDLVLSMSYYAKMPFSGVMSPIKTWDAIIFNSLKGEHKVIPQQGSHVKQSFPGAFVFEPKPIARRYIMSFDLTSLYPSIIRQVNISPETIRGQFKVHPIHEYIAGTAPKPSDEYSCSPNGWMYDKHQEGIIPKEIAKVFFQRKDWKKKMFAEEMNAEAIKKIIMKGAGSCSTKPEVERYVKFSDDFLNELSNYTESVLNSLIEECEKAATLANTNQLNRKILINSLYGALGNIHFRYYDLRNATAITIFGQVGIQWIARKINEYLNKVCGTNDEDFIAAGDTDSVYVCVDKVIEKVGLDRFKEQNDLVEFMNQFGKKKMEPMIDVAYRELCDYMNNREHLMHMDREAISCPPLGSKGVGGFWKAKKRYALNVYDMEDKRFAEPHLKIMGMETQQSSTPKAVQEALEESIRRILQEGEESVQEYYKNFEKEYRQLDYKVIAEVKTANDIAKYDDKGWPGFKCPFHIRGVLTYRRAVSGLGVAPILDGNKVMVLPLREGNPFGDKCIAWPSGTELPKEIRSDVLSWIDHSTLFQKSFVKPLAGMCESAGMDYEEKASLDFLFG
Description: Idle turnover measurements with KINSIM simulation. It is filed as biochemical. The method, then:
DNA (13/20SP-mer or 13/20T-mer; 250 nM) was first preincubated with variable concentrations of 5-NITP (20-200 μM) or 5-PhITP (10-200 μM) in the presence of 30 μM dATP. Due to the nature of the DNA substrate (FIG. 1B), the insertion of dAMP opposite T at position 13 in the template maintains a usable primer template for the insertion of the nonnatural nucleotide opposite the abasic lesion (position 14). In all cases, the reaction was initiated through the addition of 1000 nM DNA gp43 exo^+. Five microliter aliquots of the reaction were quenched into tubes containing 5 μL of 200 mM EDTA at times ranging from 5 to 600 s. The quenched samples were processed as described above and product formation was analyzed using established protocols.
Simulations modeling the observed kinetic time courses for nucleotide insertion and excision were performed by mathematical analyses using KINSIM. A simplified mechanism depicted in FIG. 11 was employed that accounts for the kinetic parameters of interest. These minimally include KD values for each nucleotide, kpol values for their insertion, and kexo, which represents the hydrolytic rate constant. Both the starting reactant concentrations and rate constants were supplied for each step of the mechanism. In all cases, the rate constants were based upon either experimentally determined rate constants or published literature values. The simulated curves were then compared to those experimentally derived to judge how accurately each set of rate constants fit the experimental data. Adjustments to the rate constants were then made until the simulated time courses were nearly identical to the experimental time courses.
Idle turnover is a process in which the DNA polymerase incorporates a dNTP and then excises the inserted dNMP in the absence of the next required nucleotide triphosphate (FIG. 11). This activity provides a more accurate representation of in vivo conditions in which the polymerase should be bound and stalled at the sight of DNA damage. Idle turnover was quantified using a modified gel electrophoresis protocol that monitors the amount of extension (13-mer to 14-mer) and subsequent excision (14-mer to 13-mer) of the DNA as a function of time. All experiments were performed using single turnover reaction conditions to ensure that all DNA was bound with polymerase during the course of the reaction. Under these conditions, the rates in product formation reflect the kinetics of insertion and excision rather than enzyme dissociation from the mispair. In each experiment, the concentration of nonnatural nucleotide was varied from 20 to 200 μM. In addition, a low concentration of 30 μM dATP was used to allow for correct dNMP insertion at position 13-mer, which prevents complete degradation of DNA substrate.
Since single turnover reaction conditions were employed, kinetic steps reflecting enzyme dissociation and rebinding to product DNA are assumed to be negligible. Thus, the rate and amount of 14-mer produced are dependent upon four interrelated parameters. These include the kinetic dissociation constant (KD) for dXTP opposite the lesion (DNAn) (step 2), the rate constant for DNA extension (kpol) (step 3), the rate constant of exonuclease degradation (kexo) (step 5), and the kinetic dissociation constant (KD′) for dXTP opposite the next templating position (DNAn+1) (step 6). Although kpol is a complex function of kinetic rate constants, this value was simplified to combine the kinetic steps encompassing the conformational change prior to phosphoryl transfer, phosphoryl transfer, and the conformational change after phosphoryl transfer. Furthermore, translocation of the enzyme and pyrophosphate release (step 4) are assumed to be rapid.

Test [3] relates to bacteriophage T4 polymerase. Description: Calculated discrimination, toxicity index and therapeutic index. It counts as biochemical.
Test [4] deals with T1, gp43exo− (bacteriophage T4 DNA polymerase). It is filed as biochemical. To be noted: 500 μM analogue; 10 μM dNTPs; unmodified 13/20-mer.
The target of test [5] is T2, gp43 exo+ (bacteriophage T4 DNA polymerase). Description: Pre-steady-state exonuclease assay (excision of dXMP from primer). The note with it: for kexo: single turnover, 1 μM gp43exo+. It is filed as biochemical.
In test [6] the target is T1, gp43exo− (bacteriophage T4 DNA polymerase). To be noted: opposite an abasic site; previously determined values (Table 7 footnotes d, e, f not given); cited from earlier work.
Test [7] shares this target. The note with it: previously demonstrated, cited from earlier work.
The target is the same in test [8]. It counts as biochemical. The note with it: 50 μM dXTP 30 s, then 1000 μM dGTP.
Test [9] has the same target. Description: biochemical. It counts as biochemical.
In test [10] the target is T2, gp43 exo+ (bacteriophage T4 DNA polymerase). To be noted: paired opposite T; cited from earlier work.
The mark [11] stands for this setting: idle turnover opposite an abasic site, computer simulation fit of time courses.
Where [12] appears, read: (kpol dNTP/kexo dXTP)(dXTP/dNTP)/(4D).

Values joined by “and” are separate entries in the source; they are usually repeats but may differ in a detail not shown here. Identical values can stand only once. Like-named read-outs stand apart in the source and are kept apart here.

Results on two molecules are retold here after patent US8114847B2, “Selective inhibitors of translesion DNA replication” (Case Western Reserve University, priority 2005, dated 2012).

Consider `O=[N+]([O-])c1ccc2c(ccn2[C@H]2C[C@H](O)[C@@H](COP(=O)(O)OP(=O)(O)OP(=O)(O)O)O2)c1` [5-NITP, 5-nitro-1-indolyl-2′-deoxyribose-5′-triphosphate], for which the Kd (commonly a measure of binding affinity in units of concentration) in [1] is 18 µM and ~10 µM; in test [2] (dXTP opposite the next templating position, computer simulation fit), 10000 µM; in [2] (setting [11]), 20 µM; in [6], 18 µM and 10 µM; in test [7] (independent of templating nucleobase) it was ~20 µM. Also, the “catalytic efficiency for insertion opposite an abasic site relative to natural nucleotide (dAMP/dATP), greater” value in test [1] is given as 1000 fold. Also, in test [1], the “incorporation opposite an abasic site favored compared to insertion opposite T (kpol)” value was 140 fold. The kpol in [1] is 126 ± 6 s⁻¹; in [2] (setting [11]), 100 S^−1 and 100 ± 10 S^−1; in test [6] it was 126 s⁻¹ and 126 ± 7 s⁻¹; in [7] (opposite T) it was ~0.9 s⁻¹. Also, the kpol/KD in test [1] was 7e+06 M⁻¹ s⁻¹. In addition, the kexo in test [2] (setting [11]) is 10 S^−1 and 10 ± 2 S^−1; in [5] (template abasic site) it was 9.9 ± 0.8 s⁻¹; in test [5] (template nucleoside thymine), 13.0 ± 1.4 s⁻¹. Also, the therapeutic index in [3] is listed as ~128. The “toxicity index (abasic DNA)” value in [3] (setting [12]) is recorded as ~6. In addition, in [3] (setting [12]), the “toxicity index (unmodified DNA)” value was 0.047. Moreover, the “discrimination (unmodified DNA)” value in test [3] (ratio of catalytic efficiencies opposite templating nucleobase) was ~53. Besides, in test [3] (ratio of catalytic efficiencies, dATP versus dXTP), the “discrimination (abasic DNA)” value is 6.1×10^−4. Moreover, the “inhibition of normal DNA synthesis” value in [4] was “little effect”. Also, the “extension beyond the mispair formed opposite an abasic site” value in test [8] is on record as “cannot elongate beyond the 14-mer product”. Besides, in test [9] (20 μM analogue, 500 μM dNTPs), the “inhibition of replication beyond an abasic site” value is reported as “level of 14-mer product remains invariant”. Besides, the IC50 – broadly, the midpoint of a concentration-inhibition curve – in test [9] (IC50) was 10 µM and ~10 µM.

For the molecule `Nc1ncnc2c1ncn2[C@H]1C[C@H](O)[C@@H](COP(=O)(O)O)O1` [dAMP], the “kexo, published value” in test [10] was 2 s⁻¹. Further, the “rate constant for excision opposite the abasic site faster than opposite T” value in [5] (abasic site versus T) is listed as ~40 fold. In addition, the kexo was 28.5±1.1 s^−1 and ≈ 28 s^−1 and 28.5+/−1.1 s^−1 in [5] (template abasic site); 0.8 ± 0.1 s⁻¹ in [5] (template nucleoside thymine).
